Results as given in patent US20050143463A1, “Method of inhibiting angiogenesis” (THE QUEEN ELIZABETH HOSPITAL RESEARCH FOUNDATION INC., priority 2002, published 2005).

Experiments:
[1] = test system: Human umbilical vein endothelial cells (HUVEC); experiment: HUVEC proliferation assay (tritiated thymidine uptake); assay type: cell-based; conditions: for HUVEC proliferation (in words) / inhibition at 400 µM: 400 μM concentration; for HUVEC proliferation (in words): tritiated thymidine uptake; for inhibition at 400 µM: percentage of control cells with no added agent (Table 3), read-out: Percentage inhibition of HUVEC proliferation; for inhibition of HUVEC proliferation in vitro, dose dependent (in words): dose dependent manner
Description: Human umbilical vein endothelial cells (HUVEC) were seeded in 96-well flat bottomed tissue culture plates at a density of 2.5-5×10^4 cells/well and treated with various dilutions of agents. Cells were cultured in RPMI medium containing 20% FCS, Penicillin/Streptomycin in a 5% CO2 atmosphere at 37° C. After 24 to 48 hours of incubation, cells were pulsed with 1 μCi of tritiated thymidine for 6 hours. The pulsed cells were trypsinised to detach from the wells and then harvested in a TOMTEC Cell Harvester onto glass fibre filters, which were dried and immersed in scintillation fluid and counted in a Wallac Microbeta scintillation counter. The results were reported as mean cpm±SD.

[2] = test system: chicken chorioallantoic membrane (CAM); experiment: Chicken chorioallantoic membrane (CAM) assay for angiogenesis; assay type: in vivo; conditions: for Vein length (%) / Artery length (%) / Total vessel length (%) / Vein Diameter (%) / CAM Increase (%): % of control, Mean ± SEM; for cytotoxicity to the embryo: chicken embryo, CAM assay; for inhibition of angiogenesis in the CAM assay, dose dependent (in words): dose dependent manner; for effect of the lowest dose on vein length, artery length, total vessel length and vein diameter (in words): lowest dose (25 nmol)
Description: Fertilised chicken eggs (HiChick Breeding Co, Kapunda, South Australia) were incubated for three days at 38° C. On Day 3 the embryos were cracked out of the egg and into a cup made of plastic piping, with plastic film stretched over the top to form a hammock for the egg to be suspended in. Two ml of DMEM containing penicillin and streptomycin was added to each cup prior to the egg being added. A petri dish on the top maintained sterility. Incubation continued in a humidified 37° C. incubator.
On Day 4 the chorioallantoic membrane (CAM) begins to grow, and pictures were taken of each embryo at ×5 to measure the CAM area using image analysis software (Video Pro 32, Leading Edge Pty Ltd, South Australia).
Embryos were then grouped according to their CAM area, with a control embryo in each for comparison. Grouping is critical as in these early developmental stages changes in the CAM growth are dramatic. Relatively small differences in size on Day 4 translate to large differences in the CAM on Day 5. Treatment was applied in methylcellulose discs, which were dried under vacuum overnight. The methylcellulose discs were applied to the top of the CAM, and at the beginning of treatment were at least three to four-fold bigger than the CAM area, meaning treatment covered the entire CAM surface.
On Day 5 skim milk with contrast medium was injected into the CAM. Pictures were then taken at various levels of magnification up to ×63. Quantitative measurements were made from ×5 pictures. CAM area, and vein and artery lengths were measured using image analysis (Video Pro 32, Leading Edge Pty Ltd, South Australia). Relative vessel lengths were then calculated as the total length/CAM area. Statistical analysis was made using SigmaStat and OneWay ANOVA with p<0.05 as the level of significance.

[3] = 25 nmol on methylcellulose disc
[4] = 50 nmol on methylcellulose disc
[5] = 100 nmol on methylcellulose disc

CC(C)CCCCCCCCC(=O)O [10-methyl undecanoic acid]
HUVEC proliferation (in words) [1]: inhibited | inhibition at 400 µM ([1]; Homo sapiens, HUVEC): 84% | inhibition of HUVEC proliferation in vitro, dose dependent (in words) [1]: inhibit the proliferation

CC(C)CCCCCCCCCCCCCCC(=O)O [16-methyl heptadecanoic acid]
HUVEC proliferation (in words) [1]: inhibited | inhibition at 400 µM ([1]; Homo sapiens, HUVEC): 19% | inhibition of HUVEC proliferation in vitro, dose dependent (in words) [1]: inhibit the proliferation

CC(C)CCCCCCCCCC(=O)O [11-methyl dodecanoic acid]
HUVEC proliferation (in words) [1]: inhibited | inhibition at 400 µM ([1]; Homo sapiens, HUVEC): 83% | inhibition of HUVEC proliferation in vitro, dose dependent (in words) [1]: inhibit the proliferation

CO[C@H]1C[C@@H]2CC[C@@H](C)[C@@](O)(O2)C(=O)C(=O)N2CCCC[C@H]2C(=O)O[C@H]([C@H](C)C[C@@H]2CC[C@@H](O)[C@H](OC)C2)CC(=O)[C@H](C)/C=C(\C)[C@@H](O)[C@@H](OC)C(=O)[C@H](C)C[C@H](C)/C=C/C=C/C=C/1C [rapamycin, reference compound]
% Inhibition of HUVEC proliferation ([1]; 0.1 nM rapamycin, 24 hours (Table 2)): 72.8% | inhibition at 0.0001 µM ([1]; Homo sapiens, HUVEC, 24 h, 0.1 nM rapamycin, 24 hours (Table 2)): 73% | inhibition at 0.001 µM ([1]; Homo sapiens, HUVEC, 24 h, 1 nM rapamycin, 24 hours (Table 2)): ~80%

CCC(C)CCCCCCCCCCCCCC(=O)O (stereo not shown) [15-methyl heptadecanoic acid]
HUVEC proliferation (in words) [1]: inhibited | inhibition at 400 µM ([1]; Homo sapiens, HUVEC): 49% | inhibition of HUVEC proliferation in vitro, dose dependent (in words) [1]: inhibit the proliferation

CCC(C)CCCCCCCCCC(=O)O (stereo not shown) [11-methyl tridecanoic acid]
HUVEC proliferation (in words) [1]: inhibited | inhibition at 400 µM ([1]; Homo sapiens, HUVEC): 42% | inhibition of HUVEC proliferation in vitro, dose dependent (in words) [1]: inhibit the proliferation

CCC(C)CCCCCCCCCCCCC(=O)O (stereo not shown) [14-methyl hexadecanoic acid]
HUVEC proliferation (in words) [1]: inhibited | inhibition at 400 µM ([1]; Homo sapiens, HUVEC): 41% | inhibition of HUVEC proliferation in vitro, dose dependent (in words) [1]: inhibit the proliferation

CC(C)CCCCCCCCCCCCC(=O)O [14-MPDA, 14-methylpentadecanoic Acid]
Vein length (%) [2, 3]: 89.6 ± 10.1% | Artery length (%) ([2]; 25 nmol): 81.3 ± 11.4% | Total vessel length (%) ([2]; 25 nmol): 84.7 ± 8.7% | Vein Diameter (%) ([2]; 25 nmol): 90.8 ± 9.2% | Vein length (%) [2, 4]: 80.9 ± 14.3% | Artery length (%) ([2]; 50 nmol): 81.4 ± 11.7% | Total vessel length (%) ([2]; 50 nmol): 80.9 ± 12.3% | Vein Diameter (%) ([2]; 50 nmol): 81.8 ± 14.1% | number of branching capillaries sprouting from the main vessels ([2]; 100 nmol): reduction | vessel area ([2]; 100 nmol): diminished | Vein length (%) [2, 5]: 63.3 ± 5.1^1% | Artery length (%) ([2]; 100 nmol): 83.5 ± 9.3% | Total vessel length (%) ([2]; 100 nmol): 74.0 ± 6.6% | Vein Diameter (%) ([2]; 100 nmol): 76.3 ± 10.2% | cytotoxicity to the embryo [2]: not cytotoxic | inhibition of angiogenesis in the CAM assay, dose dependent (in words) [2]: inhibit angiogenesis | effect of the lowest dose on vein length, artery length, total vessel length and vein diameter (in words) [2]: inhibited | HUVEC proliferation (in words) [1]: inhibited | inhibition at 400 µM ([1]; Homo sapiens, HUVEC): 7% | inhibition of HUVEC proliferation in vitro, dose dependent (in words) [1]: inhibit the proliferation

CC(C)CCCCCCCCCCC(=O)O [12-methyl tridecanoic acid]
HUVEC proliferation (in words) [1]: inhibited | inhibition at 400 µM ([1]; Homo sapiens, HUVEC): 35% | inhibition of HUVEC proliferation in vitro, dose dependent (in words) [1]: inhibit the proliferation

CC(C)CCCCCCCCCCCC(=O)O [13-MTA, 13-methyltetradecanoic Acid]
number of branching capillaries sprouting from the main vessels ([2]; 100 nmol): reduction | vessel area ([2]; 100 nmol): diminished | cytotoxicity to the embryo [2]: not cytotoxic | inhibition of angiogenesis in the CAM assay, dose dependent (in words) [2]: inhibit angiogenesis | effect of the lowest dose on vein length, artery length, total vessel length and vein diameter (in words) [2]: inhibited | HUVEC proliferation (in words) [1]: inhibited | inhibition at 400 µM ([1]; Homo sapiens, HUVEC): 19% | inhibition of HUVEC proliferation in vitro, dose dependent (in words) [1]: inhibit the proliferation

CC(C)CCCCCCCCCCCCCC(=O)O [15-methyl hexadecanoic acid]
HUVEC proliferation (in words) [1]: inhibited | inhibition at 400 µM ([1]; Homo sapiens, HUVEC): 63% | inhibition of HUVEC proliferation in vitro, dose dependent (in words) [1]: inhibit the proliferation

CCC(C)CCCCCCCCCCCC(=O)O (stereo not shown) [13-methyl pentadecanoic acid]
HUVEC proliferation (in words) [1]: inhibited | inhibition at 400 µM ([1]; Homo sapiens, HUVEC): 21% | inhibition of HUVEC proliferation in vitro, dose dependent (in words) [1]: inhibit the proliferation

CC(C)CCCCCCCCCCCCCCCC(=O)O [17-MODA, 17-methyloctadecanoic Acid]
Vein length (%) [2, 3]: 81.3 ± 16.8% | Artery length (%) ([2]; 25 nmol): 82.6 ± 18.0% | Total vessel length (%) ([2]; 25 nmol): 81.9 ± 16.9% | Vein Diameter (%) ([2]; 25 nmol): 71.6 ± 13.4% | Vein length (%) [2, 4]: 112.8 ± 9.4% | Artery length (%) ([2]; 50 nmol): 97.0 ± 11.7% | Total vessel length (%) ([2]; 50 nmol): 104.2 ± 10.4% | Vein Diameter (%) ([2]; 50 nmol): 81.3 ± 8.4% | number of branching capillaries sprouting from the main vessels ([2]; 100 nmol): reduction | vessel area ([2]; 100 nmol): diminished | Vein length (%) [2, 5]: 94.3 ± 18.9% | Artery length (%) ([2]; 100 nmol): 97.2 ± 17.4% | Total vessel length (%) ([2]; 100 nmol): 95.9 ± 18.1% | Vein Diameter (%) ([2]; 100 nmol): 70.0 ± 15.0% | cytotoxicity to the embryo [2]: not cytotoxic | inhibition of angiogenesis in the CAM assay, dose dependent (in words) [2]: inhibit angiogenesis | effect of the lowest dose on vein length, artery length, total vessel length and vein diameter (in words) [2]: inhibited

CCCCCCCCC(C)CCCCCCCCC(=O)O (stereo not shown) [10-MODA, 10-methyloctadecanoic Acid]
Vein length (%) [2, 3]: 88.4 ± 8.8% | Artery length (%) ([2]; 25 nmol): 85.7 ± 6.2% | CAM Increase (%) ([2]; 25 nmol): 101.9 ± 11.2% | Total vessel length (%) ([2]; 25 nmol): 85.7 ± 5.4% | Vein Diameter (%) ([2]; 25 nmol): 82.9 ± 3.0% | Vein length (%) [2, 4]: 85.8 ± 14.1% | Artery length (%) ([2]; 50 nmol): 94.3 ± 6.3% | CAM Increase (%) ([2]; 50 nmol): 120.2 ± 25.5% | Total vessel length (%) ([2]; 50 nmol): 88.9 ± 7.0% | Vein Diameter (%) ([2]; 50 nmol): 90.2 ± 9.8% | number of branching capillaries sprouting from the main vessels ([2]; 100 nmol): reduction | vessel area ([2]; 100 nmol): diminished | Vein length (%) [2, 5]: 70.9 ± 22.5% | CAM Increase (%) ([2]; 100 nmol): 68.2 ± 8.6% | Vein Diameter (%) ([2]; 100 nmol): 76.1 ± 16.2% | cytotoxicity to the embryo [2]: not cytotoxic | inhibition of angiogenesis in the CAM assay, dose dependent (in words) [2]: inhibit angiogenesis | effect of the lowest dose on vein length, artery length, total vessel length and vein diameter (in words) [2]: inhibited

16-methyltetradecanoic acid
inhibition of angiogenesis in the CAM assay, dose dependent (in words) [2]: inhibit angiogenesis
